In ChEMBL document CHEMBL1933053, “Efficient microwave-assisted synthesis, antibacterial activity and high fluorescence of 5 benzimidazolyl-2'-deoxyuridines” (2012):
≈ marks a conversion by molar mass, not a printed value. Calls of active or inactive are those of the source. The rule behind the calls is not given here.

Tests used:
Staphylococcus aureus [1] = experiment: Antibacterial activity against Staphylococcus aureus ATCC 13709 after overnight incubation by twofold broth dilution technique; format: functional
Enterococcus faecium = experiment: Antibacterial activity against Enterococcus faecium expressing VanA gene after overnight incubation by twofold broth dilution technique; format: functional
Staphylococcus aureus [2] = experiment: Antibacterial activity against Staphylococcus aureus ATCC 25923 after overnight incubation by twofold broth dilution technique in presence of 10% human serum; format: functional
Staphylococcus aureus [3] = experiment: Antibacterial activity against Staphylococcus aureus after overnight incubation by twofold broth dilution technique; format: functional
Staphylococcus aureus [4] = experiment: Antibacterial activity against methicillin-resistant Staphylococcus aureus after overnight incubation by twofold broth dilution technique; format: functional
Staphylococcus aureus [5] = experiment: Antibacterial activity against Staphylococcus aureus ATCC 25923 after overnight incubation by twofold broth dilution technique in presence of 50% human serum; format: functional
Staphylococcus aureus [6] = experiment: Antibacterial activity against Staphylococcus aureus ATCC 25923 after overnight incubation by twofold broth dilution technique; format: functional
Escherichia coli = experiment: Antibacterial activity against Escherichia coli ATCC 25922 after overnight incubation by twofold broth dilution technique; format: functional
Haemophilus influenzae = experiment: Antibacterial activity against Haemophilus influenzae ATCC 31517 after overnight incubation by twofold broth dilution technique; format: functional
Streptococcus pneumoniae [7] = experiment: Antibacterial activity against Streptococcus pneumoniae ATCC 49619 after overnight incubation by twofold broth dilution technique; format: functional
Enterococcus faecalis = experiment: Antibacterial activity against Enterococcus faecalis ATCC 29212 expressing VanS gene after overnight incubation by twofold broth dilution technique; format: functional
Pseudomonas aeruginosa = experiment: Antibacterial activity against Pseudomonas aeruginosa ATCC 27853 after overnight incubation by twofold broth dilution technique; format: functional
Streptococcus pneumoniae [8] = experiment: Antibacterial activity against Streptococcus pneumoniae expressing PenR gene after overnight incubation by twofold broth dilution technique in presence of 2.5% blood; format: functional
Streptococcus pneumoniae [9] = experiment: Antibacterial activity against Streptococcus pneumoniae expressing PenR gene after overnight incubation by twofold broth dilution technique; format: functional
[10] = test system: Human immunodeficiency virus; experiment: Antiviral activity against HIV infected in human MT4 cells assessed as inhibition of virus-induced cytopathogenicity by MTT assay; format: functional, organism-based

Row | Compound | MIC (Staphylococcus aureus [1]) [µg/mL] | MIC (Enterococcus faecium) [µg/mL] | MIC (Staphylococcus aureus [2]) [µg/mL] | MIC (Staphylococcus aureus [3]) [µg/mL] | MIC (Staphylococcus aureus [4]) [µg/mL] | MIC (Staphylococcus aureus [5]) [µg/mL] | MIC (Staphylococcus aureus [6]) [µg/mL] | MIC (Escherichia coli) [µg/mL] | MIC (Haemophilus influenzae) [µg/mL] | MIC (Streptococcus pneumoniae [7]) [µg/mL] | MIC (Enterococcus faecalis) [µg/mL] | MIC (Pseudomonas aeruginosa) [µg/mL] | MIC (Streptococcus pneumoniae [8]) [µg/mL] | MIC (Streptococcus pneumoniae [9]) [µg/mL] | inhibition [10]
1 | O=C(O)c1cn(C2CC2)c2cc(N3CCNCC3)c(F)cc2c1=O [CIPROFLOXACIN] | 0.12 (≈ 0.362 µM) | 16 (≈ 48.3 µM) | 0.25 | 0.12 (≈ 0.362 µM) | 8 (≈ 24.1 µM) | 0.5 | 0.25 (≈ 0.754 µM) | ≤ 0.03 | ≤ 0.03 | 1 (≈ 3.02 µM) | 0.5 (≈ 1.51 µM) |  |  |  | 
2 | O=c1[nH]c(=O)n([C@H]2C[C@H](O)[C@@H](CO)O2)cc1-c1nc2ccc(F)cc2[nH]1 | > 64 | > 64 | > 64 | > 64 |  | > 64 | > 64 | > 64 | > 64 | > 64 | > 64 | > 64 | > 64 | > 64 | inactive
3 | O=c1[nH]c(=O)n([C@H]2C[C@H](O)[C@@H](CO)O2)cc1-c1nc2cc3ccccc3cc2[nH]1 | > 64 | > 64 | > 64 | > 64 |  | > 64 | > 64 | > 64 | > 64 | > 64 | > 64 | > 64 | > 64 | > 64 | inactive
4 | O=c1[nH]c(=O)n([C@H]2C[C@H](O)[C@@H](CO)O2)cc1-c1nc2ccccc2[nH]1 | > 64 | > 64 | > 64 | > 64 |  | > 64 | > 64 | > 64 | > 64 | > 64 | > 64 | > 64 | > 64 | > 64 | inactive
5 | CC(=O)NC[C@H]1CN(c2ccc(N3CCOCC3)c(F)c2)C(=O)O1 [LINEZOLID] | 1 (≈ 2.96 µM) | 0.5 (≈ 1.48 µM) | 1 | 1 (≈ 2.96 µM) | 1 (≈ 2.96 µM) |  | 1 (≈ 2.96 µM) | > 32 | 16 (≈ 47.4 µM) |  |  | > 32 | 0.25 |  | 
6 | COc1ccc2nc(-c3cn([C@H]4C[C@H](O)[C@@H](CO)O4)c(=O)[nH]c3=O)[nH]c2c1 | > 64 | > 64 | > 64 | > 64 |  | > 64 | > 64 | > 64 | > 64 | > 64 | > 64 | > 64 | > 64 | > 64 | inactive
7 | Cc1ccc2nc(-c3cn([C@H]4C[C@H](O)[C@@H](CO)O4)c(=O)[nH]c3=O)[nH]c2c1 | > 64 | > 64 | > 64 | > 64 |  | > 64 | > 64 | > 64 | > 64 | > 64 | > 64 | > 64 | > 64 | > 64 | inactive
8 | O=c1[nH]c(=O)n([C@H]2C[C@H](O)[C@@H](CO)O2)cc1-c1nc2cc(C(F)(F)F)cc(Cl)c2[nH]1 | 2 (≈ 4.48 µM) | 1 (≈ 2.24 µM) | > 64 | 2 (≈ 4.48 µM) | 2 (≈ 4.48 µM) | > 64 | 2 (≈ 4.48 µM) | > 64 | > 64 | 4 (≈ 8.95 µM) | 2 (≈ 4.48 µM) | > 64 | 16 | 4 (≈ 8.95 µM) | inactive
9 | O=c1[nH]c(=O)n([C@H]2C[C@H](O)[C@@H](CO)O2)cc1-c1nc2c3ccccc3c3ccccc3c2[nH]1 | > 64 | > 64 | > 64 | > 64 |  | > 64 | > 64 | > 64 | > 64 | > 64 | > 64 | > 64 | > 64 | > 64 | inactive
10 | O=c1[nH]c(=O)n([C@H]2C[C@H](O)[C@@H](CO)O2)cc1-c1nc2ccc(C(F)(F)F)cc2[nH]1 | > 64 | 64 (≈ 155 µM) | > 64 | > 64 |  | > 64 | > 64 | > 64 | 4 (≈ 9.7 µM) | 64 (≈ 155 µM) | > 64 | > 64 | 64 | 32 (≈ 77.6 µM) | inactive
